# Values quoted from earlier work in patent US20040033957A1, “FAP-activated anti-tumor prodrugs” (Boehringer Ingelheim Pharma GmbH & Co. KG, priority 2002, published 2004).
# Where a SMILES comes first, the peptide text is derived from it. The star is where a group is joined. AFC = O=c1cc(C(F)(F)F)c2ccc(N*)cc2o1
# Experiments:
# FAPα dimers = target: T1, FAPα dimers (Homo sapiens, UniProt Q12884); conditions: membrane overlay assay
# T1 sequence (Q12884 1-760): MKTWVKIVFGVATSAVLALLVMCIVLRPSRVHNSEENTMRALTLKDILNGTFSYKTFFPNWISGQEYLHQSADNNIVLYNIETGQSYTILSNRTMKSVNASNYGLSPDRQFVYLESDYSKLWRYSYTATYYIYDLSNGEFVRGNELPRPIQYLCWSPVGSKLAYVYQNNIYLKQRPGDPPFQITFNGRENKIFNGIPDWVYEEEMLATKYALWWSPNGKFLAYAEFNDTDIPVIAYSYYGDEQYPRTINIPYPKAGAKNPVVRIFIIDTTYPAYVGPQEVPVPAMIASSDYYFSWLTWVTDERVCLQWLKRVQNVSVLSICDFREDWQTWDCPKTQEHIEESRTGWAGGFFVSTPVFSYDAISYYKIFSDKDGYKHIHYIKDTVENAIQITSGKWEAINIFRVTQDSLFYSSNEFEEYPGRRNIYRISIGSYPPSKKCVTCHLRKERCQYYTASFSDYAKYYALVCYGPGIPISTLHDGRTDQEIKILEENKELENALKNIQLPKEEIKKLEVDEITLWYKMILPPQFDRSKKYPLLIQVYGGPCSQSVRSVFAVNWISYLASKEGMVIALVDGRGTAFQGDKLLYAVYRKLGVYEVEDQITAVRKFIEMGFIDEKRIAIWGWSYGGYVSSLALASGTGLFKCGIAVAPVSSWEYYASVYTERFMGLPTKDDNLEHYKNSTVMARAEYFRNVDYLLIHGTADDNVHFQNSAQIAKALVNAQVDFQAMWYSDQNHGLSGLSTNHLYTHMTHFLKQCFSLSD
# xenograft tumor = conditions: mouse xenograft tumor models
# [1] = directly in the circulation, humans
SMILES,cleavage by FAPα dimers (FAPα dimers),efficacy as compared to doxorubicin (xenograft tumor),fraction of the prodrug metabolized to free doxorubicin [1],tolerability (humans),"myelosuppression (patients, correlated with AUC of released doxorubicin)"
NCCCC[C@H](N)C(=O)N1CCC[C@H]1C(=O)Nc1ccc2c(C(F)(F)F)cc(=O)oc2c1 [Lys-Pro-7-amino-4-trifluoromethyl coumarin] (H-Lys-Pro-{AFC}),able to cleave,–,–,–,–
COc1cccc2c1C(=O)c1c(O)c3c(c(O)c1C2=O)C[C@@](O)(C(=O)CO)C[C@@H]3O[C@H]1C[C@H](NC(=O)[C@@H](N)CC(C)C)[C@H](O)[C@H](C)O1 [N-L-leucyl-doxorubicin],–,improved efficacy,roughly half,comparably poor tolerability,Myelosuppression was seen
NCC(=O)N1CCC[C@H]1C(=O)Nc1ccc2c(C(F)(F)F)cc(=O)oc2c1 [Gly-Pro-7-amino-4-trifluoromethyl coumarin] (H-Gly-Pro-{AFC}),able to cleave,–,–,–,–
C[C@H](N)C(=O)N1CCC[C@H]1C(=O)Nc1ccc2c(C(F)(F)F)cc(=O)oc2c1 [Ala-Pro-7-amino-4-trifluoromethyl coumarin] (H-Ala-Pro-{AFC}),able to cleave,–,–,–,–
